Where two headings read alike, the source gives them in different places.
Assays:
VIM-2 = target: T1, VIM-2 (Escherichia coli, UniProt Q5U7L7); assay: β-Lactamase enzyme inhibition assay, VIM-2 (nitrocefin substrate); assay type: biochemical
T1 construct: made in house; host or cells: E. coli BL21(DE3)
Procedure: For Vim-2 metallo β-lactamase, the procedure was identical with the following exceptions, first the protein was not pH adjusted to pH 5 with 50 mM sodium acetate, second, the chromatography step was changed to a 5 ml Q sepharose anion exchange column pre-equilibrated with 50 mM Hepes pH 7.5, and elution of the protein was achieved by a linear gradient of NaCl (0-600 mM). Finally, the VIM-2 purification required a second run (3rd step) on the Q sepharose anion exchange column to achieve acceptable purity (>90%).
An equal volume of diluted enzyme stock was added, and the plates were incubated at 37° C. for 15 min. Nitrocefin was used as substrate for p99 AmpC, VIM-2 and OXA-1 and dispensed into each well at a final concentration of 100 μM. Absorbance at 486 nm was immediately monitored for 10 min using a Biotek Powerwave XS2 microplate spectrophotometer using the GEN5 softweare package (Biotek Instruments, Winooski Vt.). In an analogous fashion, imipenem was used as substrate for Kpc-2 and Cefotaxime was used for SHV-5, while changes in absorbance upon hydrolysis of the β-lactam ring were monitored at 300 nm and 260 nm respectively in UV-transparent 96-well microtiter assay plates. Maximum rates of hydrolysis were compared to those in control wells (without inhibitors), and percentages of enzyme inhibition were calculated for each concentration of inhibitor. The concentration of inhibitor needed to reduce the initial rate of hydrolysis of substrate by 50% (IC50) was calculated as the residual activity of β-lactamase at 486 nm using GraFit version 7 kinetics software package (Erithacus Software, Surrey, UK).
Using the methodology described above, examples of the current invention were evaluated for their ability to inhibit β-lactamase enzymes from all four Ambler classifications (A through D). […] NT=Not tested.

[1] = test system: E. coli ESBL4 expressing CTX-M-15; assay: Broth microdilution MIC assay, partner ceftazidime;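 further: ceftazidime held fixed at 4 µg/mL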; assay type: cell-based; conditions: Escherichia coli, read-out: MIC of Exemplary Compounds in presence of fixed β-lactams, Fixed CAZ, E. coli ESBL4 CTX-M-15
[2] = test system: E. cloacae 144200 expressing Class C P99 AmpC; assay: Broth microdilution MIC assay, partner ceftazidime;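 further: ceftazidime held fixed at 4 µg/mL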; assay type: cell-based; conditions: Enterobacter cloacae, read-out: MIC of Exemplary Compounds in presence of fixed β-lactams, Fixed CAZ, E. cl. 144200 p99 AmpC
[3] = test system: K. pneumoniae 156319 expressing KPC-3; assay: Broth microdilution MIC assay, partner meropenem; assay type: cell-based; conditions: Klebsiella pneumoniae, read-out: MIC of Exemplary Compounds in presence of fixed β-lactams, Fixed Mero, K.P. 156319 KPC-3
[4] = test system: P. aeruginosa Ps296 expressing VIM-2; assay: Broth microdilution MIC assay, partner meropenem; assay type: cell-based; conditions: Pseudomonas aeruginosa, read-out: MIC of Exemplary Compounds in presence of fixed β-lactams, Fixed Mero, P. aerug. Ps296 VIM-2
[5] = test system: K. pneumoniae A-1797 expressing KPC-2 and VIM-4; assay: Broth microdilution MIC assay, partner meropenem; assay type: cell-based; conditions: Klebsiella pneumoniae, read-out: MIC of Exemplary Compounds in presence of fixed β-lactams, Fixed Mero, K.P. A-1797 KPC-2 VIM-4
[6] = test system: S. aureus MSSA-7 producing penicillinase PC-1; assay: Broth microdilution MIC assay, partner piperacillin; assay type: cell-based; conditions: Staphylococcus aureus, read-out: MIC of Exemplary Compounds in presence of fixed β-lactams, Fixed Pip, S. aureus MSSA-7 PC-1
[7] = nitrocefin substrate 100 μM, 15 min preincubation at 37° C., read-out: IC50, Class B VIM-2

| Compound | IC50 (VIM-2; [7]) [nM] | MIC [1] [µg/mL] | MIC [2] [µg/mL] | MIC [3] [µg/mL] | MIC [4] [µg/mL] | MIC [5] [µg/mL] | MIC ([6]; fixed piperacillin 4 μg/mL) [µg/mL] | IC50 (VIM-2) [nM] | MIC [6] [µg/mL] |
| --- | --- | --- | --- | --- | --- | --- | --- | --- | --- |
| O=C(O)c1cccc2c1OB(O)[C@@H](NC(=O)C1(c3ccccc3)CC1)C2 [Example 1, (R)-2-hydroxy-3-(1-phenylcyclopropanecarboxamido)-3,4-dihydro-2H-benzo[e][1,2]oxaborinine-8-carboxylic acid] | 100 to 1000 | < 4 | < 4 | 8 to 32 | 8 to 32 |  |  |  |  |
| O=C(O)c1cccc2c1OB(O)[C@@H](NC(=O)C(F)(F)c1ccccc1)C2 [Example 2, (R)-3-(2,2-difluoro-2-phenylacetamido)-2-hydroxy-3,4-dihydro-2H-benzo[e][1,2]oxaborinine-8-carboxylic acid] | 1000 to 10000 | < 4 | < 4 | 8 to 32 | 8 to 32 | > 32 | < 4 |  |  |
| O=C(O)c1cccc2c1OB(O)[C@@H](NC(=O)C1(c3ccccc3)CCNCC1)C2 [Example 3, (R)-2-hydroxy-3-(4-phenylpiperidine-4-carboxamido)-3,4-dihydro-2H-benzo[e][1,2]oxaborinine-8-carboxylic acid] |  | < 4 | < 4 | < 4 | 8 to 32 | > 32 |  | 1000 to 10000 | > 32 |
| O=C(N[C@H]1Cc2cccc(C(=O)O)c2OB1O)c1csc2c1CCNC2 [Example 4, (R)-2-hydroxy-3-(4,5,6,7-tetrahydrothieno[2,3-c]pyridine-3-carboxamido)-3,4-dihydro-2H-benzo[e][1,2]oxaborinine-8-carboxylic acid] | 100 to 1000 | < 4 | < 4 | < 4 | > 32 | < 4 | < 4 |  |  |
| O=C(N[C@H]1Cc2cccc(C(=O)O)c2OB1O)c1ccc2c(c1)CCNC2 [Example 5, (R)-3-(2-borono-2-(1,2,3,4-tetrahydroisoquinoline-6-carboxamido)ethyl)-2-hydroxybenzoic acid] | 100 to 1000 | < 4 | < 4 | < 4 | > 32 | < 4 | < 4 |  |  |
| CN1CCc2c(C(=O)N[C@H]3Cc4cccc(C(=O)O)c4OB3O)csc2C1 [Example 6, (R)-2-hydroxy-3-(6-methyl-4,5,6,7-tetrahydrothieno[2,3-c]pyridine-3-carboxamido)-3,4-dihydro-2H-benzo[e][1,2]oxaborinine-8-carboxylic acid] | 1000 to 10000 | < 4 | < 4 | < 4 | > 32 | 8 to 32 | < 4 |  |  |
| CN1CCc2cc(C(=O)N[C@H]3Cc4cccc(C(=O)O)c4OB3O)ccc2C1 [Example 7, (R)-2-hydroxy-3-(2-methyl-1,2,3,4-tetrahydroisoquinoline-6-carboxamido)-3,4-dihydro-2H-benzo[e][1,2]oxaborinine-8-carboxylic acid] | 100 to 1000 | < 4 | < 4 | 8 to 32 | > 32 | < 4 | < 4 |  |  |
| O=C(O)c1cccc2c1OB(O)[C@@H](NC(=O)c1c[nH]c3ncccc13)C2 [Example 8, (R)-2-hydroxy-3-(1H-pyrrolo[2,3-b]pyridine-3-carboxamido)-3,4-dihydro-2H-benzo[e][1,2]oxaborinine-8-carboxylic acid] | 1000 to 10000 | < 4 | < 4 | > 32 | < 4 | > 32 | < 4 |  |  |
| O=C(N[C@H]1Cc2cccc(C(=O)O)c2OB1O)c1ccc2c(c1)CNC2 [Example 9, (R)-2-hydroxy-3-(isoindoline-5-carboxamido)-3,4-dihydro-2H-benzo[e][1,2]oxaborinine-8-carboxylic acid] | < 100 | < 4 | < 4 | < 4 | < 4 | < 4 | < 4 |  |  |
| CN1Cc2ccc(C(=O)N[C@H]3Cc4cccc(C(=O)O)c4OB3O)cc2C1 [Example 10, (R)-2-hydroxy-3-(2-methylisoindoline-5-carboxamido)-3,4-dihydro-2H-benzo[e][1,2]oxaborinine-8-carboxylic acid] | < 100 | < 4 | < 4 | < 4 | 8 to 32 | < 4 | < 4 |  |  |
| NCCN1Cc2ccc(C(=O)N[C@H]3Cc4cccc(C(=O)O)c4OB3O)cc2C1 [Example 11, (R)-3-(2-(2-aminoethyl)isoindoline-5-carboxamido)-2-hydroxy-3,4-dihydro-2H-benzo[e][1,2]oxaborinine-8-carboxylic acid] | 100 to 1000 | < 4 | < 4 | < 4 | > 32 | < 4 | < 4 |  |  |
| O=C(N[C@H]1Cc2cccc(C(=O)O)c2OB1O)c1ccc2c(c1)CN(Cc1cccnc1)C2 [Example 12, (R)-2-hydroxy-3-(2-(pyridin-3-ylmethyl)isoindoline-5-carboxamido)-3,4-dihydro-2H-benzo[e][1,2]oxaborinine-8-carboxylic acid] | 100 to 1000 | 8 to 32 | < 4 | 8 to 32 | > 32 | 8 to 32 | < 4 |  |  |
| O=C(Cc1cnc2c(c1)CCCN2)N[C@H]1Cc2cccc(C(=O)O)c2OB1O [Example 13, (R)-2-hydroxy-3-(2-(5,6,7,8-tetrahydro-1,8-naphthyridin-3-yl)acetamido)-3,4-dihydro-2H-benzo[e][1,2]oxaborinine-8-carboxylic acid] | 1000 to 10000 | < 4 | < 4 | < 4 | 8 to 32 | 8 to 32 | < 4 |  |  |
| NCc1ccc(C(=O)N[C@H]2Cc3cccc(C(=O)O)c3OB2O)cc1CN [Example 14, (R)-3-(3,4-bis(aminomethyl)benzamido)-2-hydroxy-3,4-dihydro-2H-benzo[e][1,2]oxaborinine-8-carboxylic acid] | < 100 | < 4 | < 4 | < 4 | < 4 | < 4 | < 4 |  |  |
| NC1=Nc2cc(C(=O)N[C@H]3Cc4cccc(C(=O)O)c4OB3O)ccc2CN1 [Example 15, (R)-3-(2-amino-3,4-dihydroquinazoline-7-carboxamido)-2-hydroxy-3,4-dihydro-2H-benzo[e][1,2]oxaborinine-8-carboxylic acid] | 1000 to 10000 | < 4 | < 4 | 8 to 32 | < 4 | 8 to 32 | < 4 |  |  |
| N=C(N)N1Cc2ccc(C(=O)N[C@H]3Cc4cccc(C(=O)O)c4OB3O)cc2C1 [Example 16, (R)-3-(2-carbamimidoylisoindoline-5-carboxamido)-2-hydroxy-3,4-dihydro-2H-benzo[e][1,2]oxaborinine-8-carboxylic acid] | < 100 | < 4 | < 4 | < 4 | < 4 | < 4 | < 4 |  |  |

Source: US9403850B2, “Beta-lactamase inhibitors” (priority 2013, dated 2016)
